{"source": "ChEMBL document CHEMBL3804812", "about": "“Design, Syntheses, and Anti-TB Activity of 1,3-Benzothiazinone Azide and Click Chemistry Products Inspired by BTZ043” (ACS Med Chem Lett, 2016)", "test_system": "Mycobacterium tuberculosis", "assay": "Antibacterial activity against Mycobacterium tuberculosis NTB1 harboring cys287ser mutation in DprE1 assessed as reduction in colony formation", "assay_type": "functional, organism-based", "note": "Active and inactive are the calls of the source. The rule behind the calls is not given here."}
{"compound": "C[C@H]1COC2(CCN(c3nc(=O)c4cc(C(F)(F)F)cc(N=[N+]=[N-])c4s3)CC2)O1", "values": [{"measurement": "Activity", "result": "Active"}]}
